Broadly, the inhibition is the share of the control response that was lost under treatment. Read a high inhibition as strong suppression. A word on the IC50: it is the concentration at which inhibition is half-maximal. A low value points to greater potency.

The target in the assay is T1, farnesyl protein transferase (FPT) (Rattus norvegicus, UniProt Q02293+Q04631).
T1 construct: partially purified rat brain farnesyl protein transferase (FPT); from tissue; host or cells: rat brain
As to the kind of experiment: FPT IC50 / FPT inhibition (inhibition of farnesyl protein transferase, in vitro enzyme assay). Particulars: for IC50: Ras-CVLS farnesylation by partially purified rat brain FPT. It counts as biochemical.

T1 sequence (Q02293 whole entry, one chain of several): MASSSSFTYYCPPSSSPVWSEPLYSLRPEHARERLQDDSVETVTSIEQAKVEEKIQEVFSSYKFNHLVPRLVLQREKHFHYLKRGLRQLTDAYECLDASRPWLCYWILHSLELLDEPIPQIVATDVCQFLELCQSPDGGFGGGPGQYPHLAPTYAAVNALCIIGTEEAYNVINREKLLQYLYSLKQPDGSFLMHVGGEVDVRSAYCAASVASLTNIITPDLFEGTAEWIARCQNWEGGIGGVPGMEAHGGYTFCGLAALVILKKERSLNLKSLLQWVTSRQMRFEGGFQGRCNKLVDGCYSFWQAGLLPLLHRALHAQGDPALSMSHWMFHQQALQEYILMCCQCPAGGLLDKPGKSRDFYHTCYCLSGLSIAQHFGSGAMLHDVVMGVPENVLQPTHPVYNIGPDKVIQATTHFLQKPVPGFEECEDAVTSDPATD

`O=C(NCCc1ccccn1)C1CCN(C2c3ccc(Cl)cc3CCc3cc(Br)cnc32)CC1` (stereo not drawn) [Example 6, 1-(3-Bromo-8-chloro-6,11-dihydro-5H-benzo[5,6]cyclohepta[1,2-b]pyridin-11-yl)-N-(2-pyridinylethyl)-4-piperidinecarboxamide] had an inhibition at 1.1 µM (@ 1.1 μM) of 9%.

In turn, `O=C(NCc1cccnc1)C1CCCN(C2c3ccc(Cl)cc3CCc3cc(Br)cnc32)C1` (stereo not drawn) [Example 10, 1-(3-Bromo-8-chloro-6,11-dihydro-5H-benzo[5,6]cyclohepta[1,2-b]pyridin-11-yl)-N-(3-pyridinylmethyl)-3-piperidinecarboxamide] displayed a half-inhibitory concentration (IC50) of 210 nM. Consider `O=C(NCCCN1CCCC1=O)[C@@H]1CCCN(C2c3ncc(Br)cc3CCc3cc(Cl)cc(Br)c32)C1` (stereo partly drawn) [Example 54, 1-(3,10-Dibromo-8-chloro-6,11-dihydro-5H-benzo[5,6]cyclohepta[1,2-b]pyridin-11-yl)-N-[3-(2-oxo-1-pyrrolidinyl)propyl]-3-piperidinecarboxamide], for which the IC50 came out at 1000 nM.

Values taken from patent US5965570A, “Tricyclic piperidinyl compounds useful as inhibitors of farnesyl-protein transferase” (Schering Corporation, priority 1997, dated 1999).
